SMILES strings stand for the structures. pIC50: −log10 of the molar value.

In the test the target is Lysine-specific histone demethylase 1A (Homo sapiens, UniProt O60341). Briefly: LSD1 Enzyme Activity Assay.
For orientation: pIC50 means −log10 of the IC50, conventionally taken in molar units. Read a low pIC50 as a high IC50. `Cc1ccc(-c2c(-c3ccc(C#N)cc3)nc3c(N4CCC[C@@H](N)C4)nccn23)cc1` [US20240216357, Example 5]: the pIC50 was 7.55.
The compound `COc1ccc(Nc2c(O)cc(N3CCC(N)CC3)nc2-c2ccc(C#N)c(F)c2)cc1F` [US20240216357, Example 64] showed a pIC50 of 6.92.
For the compound `COc1cc(N2CCC(N)CC2)nc(-c2ccc(C#N)c(F)c2)c1-c1ccc(Cl)c(O)c1` [US20240216357, Example 98], the pIC50 was 9.15.
Compound `COc1ccc(-c2nc(N3CCC(N)CC3)cc(C#N)c2-c2ccc(C#N)c(F)c2)cc1O` [US20240216357, Example 274] showed a pIC50 of 7.62.
The result for `COc1ccc(-c2c(-c3ccc(C#N)c(F)c3)nc(N3CCC(N)CC3)c3c2OCC(=O)N3)cc1O` [US20240216357, Example 280] reads 9.57; that for `Cc1noc2cc(-c3cc(C#N)c(N4CCC(N)CC4)nc3-c3ccc(C#N)c(F)c3)c(F)cc12` [US20240216357, Example 284], 6.20.
Next, `COc1ccc(-c2c(-c3ccc(C#N)c(F)c3)nc(N3CCC(N)CC3)c3c2cnn3C)cc1O` [US20240216357, Example 285]: 9.03.

These data come from BindingDB's records for patent US20240216357 (Sichuan Huiyu Pharmaceutical, 2024).
